Results: PubChem BioAssay (NCI)
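Where inhibition never reached the appropriate level, the endpoint shown equals the highest concentration tested. Otherwise, values were interpolated linearly from a five-concentration, 48-hour dose response in 96-well plates. TGI denotes the concentration required for complete inhibition of growth.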

Key:
Assay in all cases: inhibition of tumour cell growth, NCI panel, 48 h
SK-OV-3 ovarian = system: SK-OV-3 ovarian
HOP-62 NSCLC = system: HOP-62 NSCLC
SN12C renal = system: SN12C renal
SF-268 CNS = system: SF-268 CNS
OVCAR-3 ovarian = system: OVCAR-3 ovarian
UACC-257 melanoma = system: UACC-257 melanoma
K-562 leukemia = system: K-562 leukemia
MALME-3M melanoma = system: MALME-3M melanoma
HL-60(TB) leukemia = system: HL-60(TB) leukemia
DU-145 prostate = system: DU-145 prostate
ACHN renal = system: ACHN renal
786-0 renal = system: 786-0 renal
NCI-H522 lung = system: NCI-H522 lung
SK-MEL-5 melanoma = system: SK-MEL-5 melanoma
SK-MEL-2 melanoma = system: SK-MEL-2 melanoma
IGROV1 ovarian = system: IGROV1 ovarian
NCI-H226 lung = system: NCI-H226 lung
SK-MEL-28 melanoma = system: SK-MEL-28 melanoma
SR leukemia = system: SR leukemia
SNB-75 CNS = system: SNB-75 CNS
RXF 393 renal = system: RXF 393 renal
HCT-116 colon = system: HCT-116 colon
A498 renal = system: A498 renal
HCT-15 colon = system: HCT-15 colon
T-47D breast = system: T-47D breast
MDA-N = system: MDA-N
MCF7 breast = system: MCF7 breast
UACC-62 melanoma = system: UACC-62 melanoma
U251 CNS = system: U251 CNS
BT-549 breast = system: BT-549 breast
A549 NSCLC = system: A549 NSCLC
MOLT-4 leukemia = system: MOLT-4 leukemia
NCI-H23 lung = system: NCI-H23 lung
HOP-92 NSCLC = system: HOP-92 NSCLC
CCRF-CEM leukemia = system: CCRF-CEM leukemia
NCI/ADR-RES ovarian = system: NCI/ADR-RES ovarian
OVCAR-5 ovarian = system: OVCAR-5 ovarian
EKVX NSCLC = system: EKVX NSCLC
HS 578T breast = system: HS 578T breast
SF-295 CNS = system: SF-295 CNS
TK-10 renal = system: TK-10 renal
SF-539 CNS = system: SF-539 CNS
OVCAR-8 ovarian = system: OVCAR-8 ovarian
PC-3 prostate = system: PC-3 prostate
MDA-MB-231 breast = system: MDA-MB-231 breast
LOX IMVI melanoma = system: LOX IMVI melanoma
CAKI-1 renal = system: CAKI-1 renal
MDA-MB-435 = system: MDA-MB-435
M14 melanoma = system: M14 melanoma
COLO 205 colon = system: COLO 205 colon
OVCAR-4 ovarian = system: OVCAR-4 ovarian
RPMI-8226 leukemia = system: RPMI-8226 leukemia
HT29 colon = system: HT29 colon
UO-31 renal = system: UO-31 renal
SNB-19 CNS = system: SNB-19 CNS
NCI-H460 lung = system: NCI-H460 lung
KM12 colon = system: KM12 colon
SW-620 colon = system: SW-620 colon

Measured: TGI

COc1cc2c(cc1OC)[C@@](C)(C(O)C(O)C(C)(C)O)NCC2 (stereo not given in full)
not listed: NCI-H460 lung | KM12 colon | SW-620 colon
> 100 µM: all other assays above

CNC(=S)NNc1ncnc2c1ncn2-c1ccc(C)cc1
not listed: ACHN renal | SNB-75 CNS | MCF7 breast
> 100 µM: all other assays above
